Experimental data from patent US10214492B2, “Heterocyclic inhibitors of MCT4” (Vettore, LLC, priority 2016, dated 2019).

Tests used:
MCT1 = MCT1 (Homo sapiens (Human), UniProt P53985); experiment: Assay 4: MCT1-mediated lactate transport in BT20 breast cancer cells; assay type: cell-based; conditions: Table 27
Procedure: (§1) 10 μL of a 30 mM DMSO stock of BCECF-AM ester (Life Technologies) is added and the cells are incubated at 37° C. for 5 min. The cells are pelleted (300 g, 5 min), washed once with 1 mL Tyrode's Solution, pH 7.4, re-pelleted (300 g, 5 min), and resuspended in 1 mL Tyrode's Solution, pH 7.4.
Assay 4: MCT1-Mediated Lactate Transport in BT20 Breast Cancer Cells.
Preparation of BCECF loaded cells are as described for Assay 1. Lactate transport assay is as described for Assay 1, except 10 mM L-lactate (rather than 50 mM) is added.

MCT4 = MCT4 (Homo sapiens (Human), UniProt O15427); experiment: Assay 3: MCT4-mediated lactate transport in MDA-MB-231 breast cancer cells; assay type: cell-based; conditions: MDA-MB-231 cells; lactate transport
Chain of MCT4 (O15427 whole entry, looked up): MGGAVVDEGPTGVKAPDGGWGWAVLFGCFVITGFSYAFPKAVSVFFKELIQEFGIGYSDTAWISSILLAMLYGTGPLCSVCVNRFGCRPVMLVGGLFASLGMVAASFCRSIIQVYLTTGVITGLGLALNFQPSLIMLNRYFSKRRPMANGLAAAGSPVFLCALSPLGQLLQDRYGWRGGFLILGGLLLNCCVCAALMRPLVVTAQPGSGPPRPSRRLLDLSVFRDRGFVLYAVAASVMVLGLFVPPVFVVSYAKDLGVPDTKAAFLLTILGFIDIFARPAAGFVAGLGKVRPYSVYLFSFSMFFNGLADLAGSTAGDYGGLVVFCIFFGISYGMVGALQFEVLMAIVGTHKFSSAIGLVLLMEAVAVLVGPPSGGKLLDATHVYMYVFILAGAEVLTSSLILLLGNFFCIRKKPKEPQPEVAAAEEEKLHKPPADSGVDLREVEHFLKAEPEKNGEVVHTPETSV
Chain of MCT4 (P35613 whole entry partner, looked up): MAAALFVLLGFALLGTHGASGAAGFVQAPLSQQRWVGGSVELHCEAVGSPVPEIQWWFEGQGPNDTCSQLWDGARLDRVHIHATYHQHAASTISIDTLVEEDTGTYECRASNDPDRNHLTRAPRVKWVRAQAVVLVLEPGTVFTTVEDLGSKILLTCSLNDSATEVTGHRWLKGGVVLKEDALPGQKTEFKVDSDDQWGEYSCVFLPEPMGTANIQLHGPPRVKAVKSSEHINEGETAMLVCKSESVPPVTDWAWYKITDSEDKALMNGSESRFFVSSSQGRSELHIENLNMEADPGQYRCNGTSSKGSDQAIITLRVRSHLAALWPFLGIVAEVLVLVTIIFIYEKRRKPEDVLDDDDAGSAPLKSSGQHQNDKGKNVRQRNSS
Procedure: as §1
MCT4 activity may be assessed by monitoring the intracellular pH change that accompanies lactate/proton symport, using the pH-sensitive fluorescent dye 2′,7′-bis-(carboxyethyl)-5(6)-carboxyfluorescein (BCECF), in a manner similar to that previously reported for MCT1 and MCT4. The following is an exemplary procedure for assaying MCT4 activity of the compounds of Formula (I).

Chain of MCT1 (P53985 whole entry): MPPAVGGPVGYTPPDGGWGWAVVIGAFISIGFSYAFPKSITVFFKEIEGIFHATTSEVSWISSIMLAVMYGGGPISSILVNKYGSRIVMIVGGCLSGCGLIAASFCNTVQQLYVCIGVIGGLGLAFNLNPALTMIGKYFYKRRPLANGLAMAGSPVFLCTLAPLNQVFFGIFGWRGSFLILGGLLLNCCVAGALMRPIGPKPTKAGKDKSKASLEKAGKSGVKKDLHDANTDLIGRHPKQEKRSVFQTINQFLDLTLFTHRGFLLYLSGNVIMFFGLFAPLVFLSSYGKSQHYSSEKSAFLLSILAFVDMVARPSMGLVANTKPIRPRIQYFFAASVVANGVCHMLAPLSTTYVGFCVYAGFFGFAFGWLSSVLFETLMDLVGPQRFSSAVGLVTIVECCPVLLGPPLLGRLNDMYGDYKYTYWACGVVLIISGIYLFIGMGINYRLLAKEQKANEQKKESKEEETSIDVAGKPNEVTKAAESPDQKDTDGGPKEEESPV
Chain of MCT1 (P35613 140-385 partner): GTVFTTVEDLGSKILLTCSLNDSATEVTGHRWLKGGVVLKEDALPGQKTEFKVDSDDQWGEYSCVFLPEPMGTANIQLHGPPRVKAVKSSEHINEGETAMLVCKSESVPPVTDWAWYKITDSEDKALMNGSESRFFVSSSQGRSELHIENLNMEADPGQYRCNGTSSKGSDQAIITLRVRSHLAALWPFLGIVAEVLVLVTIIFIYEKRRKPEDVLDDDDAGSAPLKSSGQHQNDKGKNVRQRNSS

| Compound | IC50 (MCT1) [nM] | IC50 (MCT4) [nM] |
| --- | --- | --- |
| 2-((1-[(2-Chlorophenyl)methyl]-5-(4-cyclopropoxythien-2-yl)-1H-pyrazol-3-yl(methoxy)-2-methylpropanoic acid [Example 130] | 55 | 98 |
| COc1ccccc1-n1nc(COC(C)(C)C(=O)O)cc1-c1cccc(OCC(C)C)c1 [Example 102, 2-([1-(2-Methoxyphenyl)-5-[3-(2-methylpropoxy)phenyl]-1H-pyrazol-3-yl]methoxy)-2-methylpropanoic acid] | 42000 | 15 |
| CC(C)COc1cccc(-c2cc(COC(C)(C)C(=O)O)nn2-c2ccccc2N(C)C)c1 [Example 103, 2-([1-[2-(Dimethylamino)phenyl]-5-[3-(2-methylpropoxy)phenyl]-1H-pyrazol-3-yl]methoxy)-2-methylpropanoic acid] | 28000 | 2.6 |
| CC(C)COc1cccc(-c2cc(COC(C)(C)C(=O)O)nn2-c2ccccc2F)c1 [Example 106, 2-([1-(2-fluorophenyl)-5-[3-(2-methyl-propoxy)phenyl]-1H-pyrazol-3-yl)methoxy)-2-methylpropanoic acid] | 21000 | 12 |
| CC(C)COc1cccc(-c2cc(COC(C)(C)C(=O)O)nn2Cc2ccccc2N(C)C)c1 [Example 109, 2-[(1-[[2-(Dimethylamino)phenyl]-methyl]-5-[3-(2-methylpropoxy)phenyl]-1H-pyrazol-3-yl)methoxy)-2-methylpropanoic acid] | > 11000 | 2.1 |
| COc1ccccc1Cn1nc(COC(C)(C)C(=O)O)cc1-c1cccc(OC2CC2)c1 [Example 111, 2-([5-(3-Cyclopropoxyphenyl)-1-[(2-methoxyphenyl)methyl]-1H-pyrazol-3-yl)methoxy)-2-methylpropanoic acid] | 32000 | 7.9 |
| COc1ccccc1-n1nc(COC(C)(C)C(=O)O)cc1-c1cccc(OC2CC2)c1 [Example 112, 2-([5-(3-cyclopropoxyphenyl)-1-(2-methoxyphenyl)-1H-pyrazol-3-yl]methoxy)-2-methylpropanoic acid] | 94000 | 29 |
| COc1ccccc1-n1nc(COC(C)(C)C(=O)O)cc1-c1cccc(OC(C)C)c1 [Example 113, 2-([1-(2-Methoxyphenyl)-5-[3-(propan-2-yloxy)phenyl]-1H-pyrazol-3-yl]methoxy)-2-methylpropanoic acid] | 33000 | 6.7 |
| CN(C)c1ccccc1-n1nc(COC(C)(C)C(=O)O)cc1-c1cccc(OC2CC2)c1 [Example 114, 2-([5-(3-cyclopropoxyphenyl)-1-[2-(dimethylamino)phenyl]-1H-pyrazol-3-yl]methoxy)-2-methylpropanoic acid] | 73000 | 4.3 |
| COc1cccc(-c2cc(COC(C)(C)C(=O)O)nn2-c2cccnc2)c1 [Example 115, 2-([5-(3-Methoxyphenyl)-1-(pyridin-3-yl)-1H-pyrazol-3-yl]methoxy)-2-methylpropanoic acid] | > 100000 |  |
| COc1cccc(-c2cc(COC(C)(C)C(=O)O)nn2-c2ccccc2F)c1 [Example 117, 2-([1-(2-Fluorophenyl)-5-(3-methoxyphenyl)-1H-pyrazol-3-yl]methoxy)-2-methylpropanoic acid] | > 100000 |  |
| COc1cccc(-c2cc(COC(C)(C)C(=O)O)nn2-c2ccccc2C)c1 [Example 118, 2-([5-(3-methoxyphenyl)-1-(2-methylphenyl)-1H-pyrazol-3-yl]methoxy)-2-methylpropanoic acid] | 50000 |  |
| COc1cccc(-c2cc(COC(C)(C)C(=O)O)nn2-c2ccccc2OC)c1 [Example 119, 22-([1-(2-Methoxyphenyl)-5-(3-methoxyphenyl)-1H-pyrazol-3-yl]methoxy)-2-methylpropanoic acid] | 65000 |  |
| COc1cccc(-c2cc(CO[C@@H](C)C(=O)O)nn2Cc2ccccc2Cl)c1 [Example 124, (2S)-2-([1-[(2-Chlorophenyl)methyl]-5-(3-methoxyphenyl)-1H-pyrazol-3-yl]methoxy)-propanoic acid] | 31000 | 420 |
| COc1cccc(-c2cc(CO[C@H](C)C(=O)O)nn2Cc2ccccc2Cl)c1 [Example 125, (2R)-2-([1-[(2-Chlorophenyl)methyl]-5-(3-methoxyphenyl)-1H-pyrazol-3-yl]methoxy)-propanoic acid] |  | 5900 |
| COc1ccccc1-c1cc(COC(C)(C)C(=O)O)nn1Cc1ccccc1Cl [Example 126] | 35000 | 130 |
| COc1ccc(-c2cc(COC(C)(C)C(=O)O)nn2Cc2ccccc2Cl)cc1 [Example 127, 2-([1-[(2-Chlorophenyl)methyl]-5-(4-methoxyphenyl)-1H-pyrazol-3-yl]methoxy)-2-methylpropanoic acid] | 15000 | 41 |
| CC(C)COc1ccc(-c2cc(COC(C)(C)C(=O)O)nn2Cc2ccccc2Cl)s1 [Example 128, 2-([1-[(2-Chlorophenyl)methyl]-5-[5-(2-methylpropoxy)thien-2-yl]-1H-pyrazol-3-yl]methoxy)-2-methylpropanoic acid] | > 11000 | 1.2 |
| CC(C)Oc1ccc(-c2cc(COC(C)(C)C(=O)O)nn2Cc2ccccc2Cl)s1 [Example 129, 2-([1-[(2-Chlorophenyl)methyl]-5-[5-(propan-2-yloxy)thien-2-yl]-1H-pyrazol-3-yl]methoxy)-2-methylpropanoic acid] | 16000 | 2.8 |
| COc1cccc(-c2cc(COC(C)(C)C(=O)O)nn2Cc2c(F)cccc2N(C)C)c1 [Example 136, 2-[(1-[(2-(Dimethylamino)-6-fluoro-phenyl]methyl]-5-(3-methoxyphenyl)-1H-pyrazol-3-yl)methoxy)-2-methylpropanoic acid] | > 33000 |  |
| COc1cc(OC)cc(-c2cc(COC(C)(C)C(=O)O)nn2-c2cccc(OC)c2)c1 [Example 242, 2-([5-(3,5-Dimethoxyphenyl)-1-(3-methoxyphenyl)-1H-pyrazol-3-yl]methoxy)-2-methylpropanoic acid] | 57000 |  |
| Cn1cnc2ccc(-c3cc(COC(C)(C)C(=O)O)nn3Cc3ccccc3Cl)cc21 [Example 248, 2-([1-[(2-Chlorophenyl)methyl]-5-(1-methyl-1H-1,3-benzodiazol-6-yl)-1H-pyrazol-3-yl]methoxy)-2-methylpropanoic acid] | > 100000 |  |

The remaining compounds from weak to strong by IC50 (MCT1), led by results:

| IC50 (MCT1) [nM] | IC50 (MCT4) [nM] | Compound |
| --- | --- | --- |
| 15000 | 7.6 | Cc1ccccc1-n1nc(COC(C)(C)C(=O)O)cc1-c1cccc(OCC(C)C)c1 [Example 105, 2-Methyl-2-([1-(2-methylphenyl)-5-[3-(2-methylpropoxy)phenyl]-1H-pyrazol-3-yl]methoxy]propanoic acid] |
| 12000 | 3.4 | CC(C)COc1cccc(-c2cc(COC(C)(C)C(=O)O)nn2-c2ccccc2Cl)c1 [Example 101, 2-([1-(2-Chlorophenyl)-5-[3-(2-methyl-propoxy)phenyl]-1H-pyrazol-3-yl)methoxy)-2-methylpropanoic acid] |
| 12000 | 20 | CC(C)COc1cccc(-c2cc(COC(C)(C)C(=O)O)nn2-c2ccccc2)c1 [Example 104, 2-methyl-2-([5-[3-(2-methylpropoxy)phenyl]-1-phenyl-1H-pyrazol-3-yl]methoxy)propanoic acid] |
| 11000 | 1500 | CC[C@@H](OCc1cc(-c2cccc(OC)c2)n(Cc2ccccc2Cl)n1)C(=O)O [Example 123] |
| 9900 | 170 | CC(C)COc1cccc(-c2cc(COC(C)(C)C(=O)O)nn2Cc2ccc(N(C)C)cc2)c1 [Example 107, 2-[(1-[[4-(Dimethylamino)phenyl]methyl]-5-[3-(2-methylpropoxy)phenyl]-1H-pyrazol-3-yl)methoxy)-2-methylpropanoic acid] |
| 8500 |  | COc1cc(OC)cc(-c2cc(COC(C)(C)C(=O)O)nn2-c2cccc(Cl)c2)c1 [Example 241, 2-([5-(3,5-Dimethoxyphenyl)-1-(3-chlorophenyl)-1H-pyrazol-3-yl]methoxy)-2-methylpropanoic acid] |
| 7300 |  | Cc1nn(C)c2c(-n3nc(COC(C)(C)C(=O)O)cc3-c3cccc(OCC(C)(C)C)c3)cccc12 [Example 255] |
| 5200 | 36 | CC(C)COc1cccc(-c2cc(COC(C)(C)C(=O)O)nn2Cc2cccc(N(C)C)c2)c1 [Example 108, 2-[(1-[[3-(Dimethylamino)phenyl]-methyl]-5-[3-(2-methylpropoxy)phenyl]-1H-pyrazol-3-yl)methoxy)-2-methylpropanoic acid] |
| 2500 | 50 | CC[C@H](OCc1cc(-c2cccc(OC)c2)n(Cc2ccccc2Cl)n1)C(=O)O [Example 122, (2S)-2-([1-[(2-Chlorophenyl)methyl]-5-(3-methoxyphenyl)-1H-pyrazol-3-yl]methoxy)-butanoic acid] |
| 650 | 225 | CC(C)(OCc1cc(-c2ccc(OC3CC3)s2)n(Cc2ccccc2Cl)n1)C(=O)O [Example 131, 2-([1-[(2-Chlorophenyl)methyl]-5-(5-cyclopropoxythien-2-yl)-1H-pyrazol-3-yl]methoxy)-2-methylpropanoic acid] |
| 220 | 53 | COc1cccc(OC)c1Cn1nc(COC(C)(C)C(=O)O)cc1-c1cccc(OCC(C)C)c1 [Example 135, 2-([1-[(2,6-Dimethoxyphenyl)methyl]-5-[3-(2-methylpropoxy)phenyl] 1H-pyrazol-3-yl]methoxy)-2-methylpropanoic acid] |
